Test results reported in ChEMBL document CHEMBL1139735, “Inhibitors of unactivated p38 MAP kinase” (Bioorg Med Chem Lett, 2006).
Calls of active or inactive are those of the source. The rule behind the calls is not given here.

Key:
Mus musculus [1] = assay: Toxicity in mouse at 200 mg/kg; assay type: organism-based; set-up: dose 200 mg/kg; details: in vivo
PBMC = assay: Inhibition of TNF production in human PBMC; assay type: functional, cell-based
MAP kinase p38 [2] = target: T1, MAP kinase p38 (Homo sapiens, UniProt O15264+Q15759+Q16539+P53778); assay: Inhibition of p38 kinase; assay type: protein assay
Mus musculus [3] = assay: Inhibition of TNF production in mouse at 10 mg/kg; assay type: functional
Cytochrome P450 1A2 = target: T2, Cytochrome P450 1A2 (Homo sapiens, UniProt P05177); assay: Inhibition of CYP1A2 below 15 uM; assay type: ADME
T2 sequence (P05177 whole entry): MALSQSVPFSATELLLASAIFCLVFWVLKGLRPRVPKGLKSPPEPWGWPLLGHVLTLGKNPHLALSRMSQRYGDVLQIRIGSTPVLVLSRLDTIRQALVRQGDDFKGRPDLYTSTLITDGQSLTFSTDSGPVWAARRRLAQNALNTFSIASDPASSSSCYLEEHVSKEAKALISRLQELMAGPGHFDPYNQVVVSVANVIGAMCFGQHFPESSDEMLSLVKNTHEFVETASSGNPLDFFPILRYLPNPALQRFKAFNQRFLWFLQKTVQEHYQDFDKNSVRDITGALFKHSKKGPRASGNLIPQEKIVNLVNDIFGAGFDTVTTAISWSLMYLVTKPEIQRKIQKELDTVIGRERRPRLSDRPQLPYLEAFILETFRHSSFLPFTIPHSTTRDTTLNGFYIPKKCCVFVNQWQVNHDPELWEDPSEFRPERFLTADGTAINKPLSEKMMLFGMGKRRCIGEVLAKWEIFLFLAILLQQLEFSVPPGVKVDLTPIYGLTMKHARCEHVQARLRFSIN

Mus musculus [4] = assay: Inhibition of TNF production in orally dosed mouse model; assay type: functional; details: po
Cytochrome P450 2C19 = Cytochrome P450 2C19 (Homo sapiens, UniProt P33261); assay: Inhibition of CYP2C19; assay type: ADME
Chain of Cytochrome P450 2C19 (P33261 whole entry): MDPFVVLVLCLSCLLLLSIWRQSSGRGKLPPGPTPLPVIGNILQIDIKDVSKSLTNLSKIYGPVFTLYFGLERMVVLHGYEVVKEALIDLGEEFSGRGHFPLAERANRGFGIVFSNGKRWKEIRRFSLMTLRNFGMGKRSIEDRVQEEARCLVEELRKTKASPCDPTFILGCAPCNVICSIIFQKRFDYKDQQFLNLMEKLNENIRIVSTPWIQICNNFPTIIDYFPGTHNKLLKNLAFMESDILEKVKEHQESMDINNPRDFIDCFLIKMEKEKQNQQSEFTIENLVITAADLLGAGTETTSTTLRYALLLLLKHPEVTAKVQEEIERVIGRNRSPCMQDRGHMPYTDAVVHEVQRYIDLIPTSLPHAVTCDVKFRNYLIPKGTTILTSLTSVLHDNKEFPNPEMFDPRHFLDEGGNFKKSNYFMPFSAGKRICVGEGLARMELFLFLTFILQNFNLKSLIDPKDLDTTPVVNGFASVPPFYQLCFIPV

Cytochrome P450 2D6 = Cytochrome P450 2D6 (Homo sapiens, UniProt P10635); assay: Inhibition of CYP2D6 below 15 uM; assay type: ADME
Chain of Cytochrome P450 2D6 (P10635 whole entry): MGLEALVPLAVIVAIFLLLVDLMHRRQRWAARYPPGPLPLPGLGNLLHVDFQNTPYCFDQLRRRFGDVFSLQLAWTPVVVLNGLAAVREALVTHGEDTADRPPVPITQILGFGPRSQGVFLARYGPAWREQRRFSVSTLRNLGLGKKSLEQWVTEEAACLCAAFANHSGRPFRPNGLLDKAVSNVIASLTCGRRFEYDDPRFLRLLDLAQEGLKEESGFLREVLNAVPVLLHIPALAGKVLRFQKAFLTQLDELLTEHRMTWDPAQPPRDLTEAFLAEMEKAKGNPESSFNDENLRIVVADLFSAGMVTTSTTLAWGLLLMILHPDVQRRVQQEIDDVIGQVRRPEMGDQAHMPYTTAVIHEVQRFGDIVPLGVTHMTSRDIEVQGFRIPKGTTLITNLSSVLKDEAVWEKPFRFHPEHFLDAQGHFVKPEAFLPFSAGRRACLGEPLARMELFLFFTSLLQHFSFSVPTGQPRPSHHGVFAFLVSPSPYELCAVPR

Cytochrome P450 3A4 = Cytochrome P450 3A4 (Homo sapiens, UniProt P08684); assay: Inhibition of CYP3A4 below 15 uM; assay type: ADME
Chain of Cytochrome P450 3A4 (P08684 whole entry): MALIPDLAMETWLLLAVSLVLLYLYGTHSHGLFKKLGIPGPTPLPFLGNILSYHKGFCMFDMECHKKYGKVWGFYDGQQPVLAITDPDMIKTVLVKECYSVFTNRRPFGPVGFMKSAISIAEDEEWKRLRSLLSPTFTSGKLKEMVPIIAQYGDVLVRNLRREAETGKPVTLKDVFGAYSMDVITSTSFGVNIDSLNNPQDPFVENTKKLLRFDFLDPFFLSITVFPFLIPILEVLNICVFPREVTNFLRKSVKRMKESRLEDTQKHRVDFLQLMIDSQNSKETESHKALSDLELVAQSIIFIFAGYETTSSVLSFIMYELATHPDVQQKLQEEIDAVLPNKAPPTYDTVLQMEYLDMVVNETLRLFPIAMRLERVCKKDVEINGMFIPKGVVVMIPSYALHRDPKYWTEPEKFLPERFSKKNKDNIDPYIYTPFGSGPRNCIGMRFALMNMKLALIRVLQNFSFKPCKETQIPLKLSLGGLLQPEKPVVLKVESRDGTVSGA

[5] = target: Mitogen-activated protein kinase 14 (Homo sapiens, UniProt Q16539); assay: Binding affinity to p38alpha
Chain of Mitogen-activated protein kinase 14 (Q16539 whole entry): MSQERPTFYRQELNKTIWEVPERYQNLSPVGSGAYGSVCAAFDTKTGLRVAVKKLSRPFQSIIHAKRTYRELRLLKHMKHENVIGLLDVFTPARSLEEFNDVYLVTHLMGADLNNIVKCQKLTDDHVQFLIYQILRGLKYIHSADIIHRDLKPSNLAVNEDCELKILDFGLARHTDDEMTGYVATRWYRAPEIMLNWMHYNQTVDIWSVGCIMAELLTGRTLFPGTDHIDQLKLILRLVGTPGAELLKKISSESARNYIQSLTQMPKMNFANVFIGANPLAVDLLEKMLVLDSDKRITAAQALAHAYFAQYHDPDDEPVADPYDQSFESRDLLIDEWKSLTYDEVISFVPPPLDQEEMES

Mus musculus [6] = assay: Inhibition of collagen-induced arthritis in mouse at 30 mg/kg, po; assay type: functional
Cytochrome P450 2C9 = Cytochrome P450 2C9 (Homo sapiens, UniProt P11712); assay: Inhibition of CYP2C9; assay type: ADME
Chain of Cytochrome P450 2C9 (P11712 whole entry): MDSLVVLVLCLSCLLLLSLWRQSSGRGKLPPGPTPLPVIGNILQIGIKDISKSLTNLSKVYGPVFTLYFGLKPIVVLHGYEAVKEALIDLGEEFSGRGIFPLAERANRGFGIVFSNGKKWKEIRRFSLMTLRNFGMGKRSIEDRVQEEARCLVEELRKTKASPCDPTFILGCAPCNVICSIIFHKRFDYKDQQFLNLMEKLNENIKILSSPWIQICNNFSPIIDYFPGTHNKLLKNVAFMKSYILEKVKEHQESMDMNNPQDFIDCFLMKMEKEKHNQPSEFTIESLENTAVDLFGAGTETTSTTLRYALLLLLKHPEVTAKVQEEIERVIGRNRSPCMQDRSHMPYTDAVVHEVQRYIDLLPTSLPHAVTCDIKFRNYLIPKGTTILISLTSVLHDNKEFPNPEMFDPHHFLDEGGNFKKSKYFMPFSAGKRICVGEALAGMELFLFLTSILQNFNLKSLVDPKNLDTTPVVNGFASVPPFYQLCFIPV

Rattus norvegicus = assay: Reduction of swelling in adjuvant-induced arthritis rat at 30 mg/kg, po; assay type: functional; set-up: scale not given: the % may be the effect or the level left
[7] = Bioavailability in rat; assay type: ADME, organism-based; details: in vivo
[8] = Bioavailability in mouse; assay type: ADME, organism-based; details: in vivo
[9] = Bioavailability in monkey; assay type: ADME, organism-based, Macaca mulatta; details: rhesus monkey, in vivo
[10] = Bioavailability in dog; assay type: ADME, organism-based, Canis lupus familiaris; details: in vivo
[11] = target: T3, 5-hydroxytryptamine receptor 3A (Homo sapiens, UniProt P46098); assay: Inhibition of 5HT3 receptor
T3 sequence (P46098 whole entry): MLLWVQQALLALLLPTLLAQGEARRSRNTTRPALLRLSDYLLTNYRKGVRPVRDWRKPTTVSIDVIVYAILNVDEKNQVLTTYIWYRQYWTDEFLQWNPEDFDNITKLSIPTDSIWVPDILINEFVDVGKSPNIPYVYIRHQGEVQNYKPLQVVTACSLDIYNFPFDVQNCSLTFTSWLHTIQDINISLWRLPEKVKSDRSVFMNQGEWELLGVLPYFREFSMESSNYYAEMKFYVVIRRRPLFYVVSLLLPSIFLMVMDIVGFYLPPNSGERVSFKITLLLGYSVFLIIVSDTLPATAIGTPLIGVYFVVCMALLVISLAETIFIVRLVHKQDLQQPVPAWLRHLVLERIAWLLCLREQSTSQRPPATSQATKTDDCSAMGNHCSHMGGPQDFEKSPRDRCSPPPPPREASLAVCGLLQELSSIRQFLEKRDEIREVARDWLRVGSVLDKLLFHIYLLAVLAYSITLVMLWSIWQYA

MAP kinase p38 [12] = target: T1, MAP kinase p38; assay: Inhibition of activated p38 kinase up to 10 uM; assay type: protein assay
Mus musculus [13] = assay: Inhibition of LPS-induced TNF production in mouse at 10 mg/kg after 2 hrs; assay type: functional
MAP kinase p38 [14] = target: T1, MAP kinase p38; assay: Inhibition of p38 phosphorylation; assay type: protein assay

## COC(=O)c1c(-c2ccc(F)cc2)c(-c2ccncc2)c(C2=CCNCC2)n1C
Mus musculus [1]
  Activity: Non-toxic
PBMC
  IC50: 72 nM

## CCN1CCN(c2c(-c3ccncc3)c(-c3ccc(F)cc3)c(C(=O)OC)n2C)CC1
Mus musculus [1]
  Activity: Non-toxic
PBMC
  IC50: 135 nM

## CCOC(=O)c1c(-c2ccc(C)cc2)c(-c2ccncc2)c(N2CCNCC2)n1C
MAP kinase p38 [2]
  IC50: 3.939 µM
PBMC
  IC50: 60 nM
Mus musculus [3]
  inhibition in vivo at 10 mg/kg: 79%

## COC(=O)c1c(-c2ccc(F)cc2)c(-c2ccncc2)c(NC2CCNCC2)n1C
PBMC
  IC50: 315 nM

## COC(=O)c1c(-c2ccc(F)cc2)c(-c2ccncc2)c(NCCN2CCOCC2)n1C
PBMC
  IC50: 50 nM

## CCC(=O)c1c(-c2ccc(F)cc2)c(-c2ccncc2)c(N2CCNCC2)n1C
PBMC
  IC50: 67 nM

## CC(=O)N1CCN(c2c(-c3ccncc3)c(-c3ccc(F)cc3)c(C#N)n2C)CC1 [listing 1 of 2 here]
Cytochrome P450 1A2
  Activity: Not Active
Mus musculus [4]
  ED50: 0.5 mg/kg
Mus musculus [1]
  Activity: Non-toxic
Cytochrome P450 2C19
  IC50: 8 µM
Cytochrome P450 2D6
  Activity: Not Active
Cytochrome P450 3A4
  Activity: Not Active
[5]
  Kd: 100 nM
MAP kinase p38 [2]
  IC50: 2 µM
Mus musculus [6]
  inhibition in vivo at 30 mg/kg: 50%
PBMC
  IC50: 123 nM
Cytochrome P450 2C9
  IC50: 4 µM
Rattus norvegicus
  Activity: 91%

## COC(=O)c1c(-c2ccc(F)cc2)c(-c2ccncc2)c(N2CCCC2)n1C
PBMC
  IC50: 17 nM

## CCCN1CCN(c2c(-c3ccncc3)c(-c3ccc(F)cc3)c(C(=O)OC)n2C)CC1
PBMC
  IC50: 901 nM

## CC(=O)N1CCN(c2c(-c3ccncc3)c(-c3ccc(F)cc3)c(C#N)n2C)CC1.Cl
[7]
  bioavailability: 70%
[8]
  bioavailability: 70%
[9]
  bioavailability: 70%
[10]
  bioavailability: 70%

## COC(=O)c1c(-c2ccc(F)cc2)c(-c2ccncc2)c(N2CCOCC2)n1C
PBMC
  IC50: 47 nM

## Cn1c(C#N)c(-c2ccc(F)cc2)c(-c2ccncc2)c1N1CCNCC1
Mus musculus [4]
  ED50: 5 mg/kg
PBMC
  IC50: 18 nM

## COC(=O)c1c(-c2ccc(F)cc2)c(-c2ccncc2)c(N2CCN(C(C)C)CC2)n1C
PBMC
  IC50: 1980 nM

## CC(=O)C(=O)c1c(-c2ccc(F)cc2)c(-c2ccncc2)c(N2CCNCC2)n1C
PBMC
  IC50: 28 nM
Mus musculus [3]
  inhibition in vivo at 10 mg/kg: 52%

## COC(=O)c1c(-c2ccc(F)cc2)c(-c2ccncc2)c(N2CCN(C)CC2)n1C
Mus musculus [1]
  Activity: Non-toxic
PBMC
  IC50: 95 nM

## COC(=O)c1c(-c2ccc(F)cc2)c(-c2ccncc2)c(N(C)CCN2CCOCC2)n1C
Mus musculus [4]
  ED50: 3 mg/kg
PBMC
  IC50: 38 nM
Mus musculus [3]
  inhibition in vivo at 10 mg/kg: 78%

## COC(=O)c1c(-c2ccc(F)cc2)c(-c2ccncc2)c(N2CCNCC2)n1C
Mus musculus [4]
  ED50: 7.5 mg/kg
Mus musculus [1]
  Activity: Toxic
[11]
  IC50: 275 nM
MAP kinase p38 [12]
  Activity: inactive
PBMC
  IC50: 33 nM

## CC(=O)c1c(-c2ccc(F)cc2)c(-c2ccncc2)c(N2CCN(C)CC2)n1C
PBMC
  IC50: 529 nM
Mus musculus [13]
  inhibition in vivo at 10 mg/kg: 40%

## CC(=O)c1c(-c2ccc(F)cc2)c(-c2ccncc2)c(N2CCNCC2)n1C
Mus musculus [1]
  Activity: Non-toxic
PBMC
  IC50: 40 nM

## COC(=O)c1c(-c2ccc(F)cc2)c(-c2ccncc2)c(NCCN(C)C)n1C
PBMC
  IC50: 98 nM

## CNC(=O)c1c(-c2ccc(F)cc2)c(-c2ccncc2)c(N2CCNCC2)n1C
PBMC
  IC50: 779 nM

## Cn1cc(-c2ccc(F)cc2)c(-c2ccncc2)c1N1CCNCC1
PBMC
  IC50: 15 nM

## CC(=O)N1CCN(c2c(-c3ccncc3)c(-c3ccc(F)cc3)c(C#N)n2C)CC1 [listing 2 of 2 here]
MAP kinase p38 [14]
  Activity: Active

## Cn1c(C(=O)c2ccccc2)c(-c2ccc(F)cc2)c(-c2ccncc2)c1N1CCNCC1
PBMC
  IC50: 660 nM

## CN1CCN(c2c(-c3ccncc3)c(-c3ccc(F)cc3)c(C#N)n2C)CC1
PBMC
  IC50: 80 nM

## CC(=O)c1c(-c2ccc(F)cc2)c(-c2ccncc2)c(N2CCN(C(C)=O)CC2)n1C
Mus musculus [1]
  Activity: Non-toxic
PBMC
  IC50: 43 nM

## CC(C)NC(=O)c1c(-c2ccc(F)cc2)c(-c2ccncc2)c(N2CCNCC2)n1C
PBMC
  IC50: 10000 nM

## CCOC(=O)c1c(-c2cccc(C(F)(F)F)c2)c(-c2ccncc2)c(N2CCNCC2)n1C
MAP kinase p38 [2]
  IC50: > 10 µM
PBMC
  IC50: 21 nM

## CCOC(=O)c1c(-c2cc(F)cc(F)c2)c(-c2ccncc2)c(N2CCNCC2)n1C
MAP kinase p38 [2]
  IC50: > 10 µM
PBMC
  IC50: 93 nM
Mus musculus [3]
  inhibition in vivo at 10 mg/kg: 79%

## COC(=O)c1c(-c2ccc(F)cc2)c(-c2ccncc2)c(NCCN2CCCCC2)n1C
PBMC
  IC50: 92 nM
